From paper PMC12434071, “Platinum-group metal half-sandwich complexes of 1-(α-D-glucopyranosyl)-4-hetaryl-1,2,3-triazoles: synthesis, solution equilibrium studies, and investigation of their anticancer and antimicrobial activities” (Frontiers in Chemistry, 2025)

Assays:
A2780 cells = experiment: SRB assay on A2780 cells; format: cell-based; details: maximal inhibition; 48 h treatment; maximum concentration 100 µM
Method: For MTT assays, 4 × 10^3 A2780 cells were plated into 96-well plates, and for SRB assays, 1.5 × 10^3 A2780 cells were plated into 96-well plates. Cells were treated with the compounds in the concentrations indicated for either 4 h for an MTT assay or for 48 h for an SRB assay. Data are represented as average ± SD, from four biological replicates, with the exception of the MTT dataset of Ir-2b and the SRB datasets of 2b, Ru/Ir-2b, and Ir-3a, which were derived from three biological replicates. Individual assays were performed in duplicate. Values were normalized for vehicle-treated cells, and the absorbance for vehicle-treated cells equals 1. Data are represented as fold change compared to vehicle-treated controls. Normality was assessed using the D’Agostino–Pearson test. Statistical significance was assessed using a two-way ANOVA test followed by Tukey’s post hoc test. For better visibility, normality, transformations, statistical tests, and p values are presented in an MS Excel sheet at https://figshare.com/s/3a0aa60b66f3f746f41e. Color code: black—free ligand (2a,b or 3a), khaki—ruthenium complex (Ru-2a,b or Ru-3a), green—iridium complex (Ir-2a,b or Ir-3a).  FIGURE 7 The ruthenium, osmium, and iridium complexes of ligands 4a, 4b, and 5a are cytostatic on ovarian cancer models with a good therapeutic index. For SRB assays, 1.5 × 10^3 A2780 cells, 1.5 × 10^3 ID8 cells, or 4 × 10^3 primary fibroblasts were plated into 96-well plates. Cells were treated with the compounds in the concentrations indicated for 48 h. Data are represented as average ± SD, from four biological replicates on A2780 and human primary fibroblasts, except in the case of Os complexes, where experiments were performed in three biological replicates. ID8 cells were assessed in three biological replicates. Individual assays were performed in duplicate. Values were normalized for vehicle-treated cells, and the absorbance for vehicle-treated cells equals 1. Normality was assessed using the D’Agostino–Pearson test. Statistical significance was assessed using a two-way ANOVA test followed by Tukey’s post hoc test. For better visibility, normality, transformations, statistical tests, and p values are presented in an MS Excel sheet at https://figshare.com/s/3a0aa60b66f3f746f41e. Color code: black—free ligand (4a,b or 5a), khaki—ruthenium complex (Ru-4a,b), blue—osmium complex (Os-4a,b or Os-5a), green—iridium complex (Ir-4a,b), and red—rhodium complex (Rh-4a,b). An SRB assay measures protein content of cells in correlation with the cell number in an assay well and can therefore be used to assess cell proliferation or long-term cytostasis ([Skehan et al., 1990]). Cells were seeded into 96-well plates the day before the treatment for the assay. Cells were treated with the various compounds for 48 h. Then, the medium was removed, and cells were fixed with 10% trichloroacetic acid. Fixed cells were washed in distilled water three times, followed by staining with SRB (0.4 m/V% dissolved in 1% acetic acid) for 10 min. Stained cells were washed in 1% acetic acid five times; the acetic acid was removed, and the cells were left to dry. Protein-bound SRB was released by adding 100 µL of 10 mM Tris base. Plates were measured in a plate photometer (Thermo Scientific Multiscan GO spectrophotometer, Waltham, MA, United States) at 540 nm. Certain wells were designated to contain vehicle-treated cells on each plate. […] Statistical analysis was performed using version 8.0.1 of GraphPad Prism. Values were tested for normal distribution using the D’Agostino–Pearson or Shapiro–Wilk normality tests. When necessary, values were log-normalized or normalized using the Box–Cox or two-step normalization method ([Box and Cox, 1964]), as indicated in the MS Excel file listing the values at https://figshare.com/s/3a0aa60b66f3f746f41e. […]

ID8 cells = experiment: MTT reduction assay on ID8 cells; format: cell-based; details: maximal inhibition; 4 h treatment; maximum concentration 100 µM
Method: FIGURE 5 The ruthenium, osmium, and iridium complexes of ligands 4a, 4b, and 5a decrease MTT reduction. For MTT assays, 4 × 10^3 A2780 cells, 3 × 10^3 ID8 cells, or 6 × 10^3 human primary fibroblasts were plated into 96-well plates. Cells were treated with the compounds in the concentrations indicated for 4 h. Data are represented as average ± SD, from four biological replicates on A2780, and from three biological replicates on ID8 and human primary fibroblasts. For the datasets of 5a and Os-5a on human primary fibroblasts, the data represent four biological replicates. Individual assays were performed in duplicate. Values were normalized for vehicle-treated cells, and the absorbance for vehicle-treated cells equals 1. Normality was assessed using the D'Agostino-Pearson test. Statistical significance was assessed using a two-way ANOVA test followed by Tukey's post hoc test. For better visibility, normality, transformations, statistical tests, and p values are presented in an MS Excel sheet at https://figshare.com/s/3a0aa60b66f3f746f41e. Color code: black-free ligand (4a,b or 5a), khaki-ruthenium complex (Ru-4a,b), green-iridium complex (Ir-4a,b), blue-osmium complex (Os-4a,b or Os-5a), and red-rhodium complex (Rh-4a,b). An MTT reduction assay measures the activity of mitochondrial complex I and can be used to detect toxicity ([[…] et al., 2016]). The assay was performed in a manner similar to that described by [[…] et al. (2023b)]. Briefly, cells were plated into 96-well plates the day before the assay. Cells were treated with the compounds for 4 h; then, MTT was added to a 0.5 mg/mL final concentration, and cells were incubated at 37°C in a cell incubator for 40-60 min, as a function of the cell line being assessed. The culture medium was removed, the reduced MTT dye was dissolved in dimethylsulfoxide, and plates were measured in a plate photometer (Thermo Scientific Multiscan GO spectrophotometer, Waltham, MA, United States) at 540 nm. […] In calculations, the readings for these wells were considered to 1, and all readings were expressed relative to these values. […]

Row | Compound | A2780 SRB max % (A2780 cells) [%] | ID8 MTT max % (ID8 cells) [%]
1 | OC[C@H]1O[C@H](n2cc(-c3ccccn3)nn2)[C@H](O)[C@@H](O)[C@@H]1O [Complex 3a, 1-(α-D-Glucopyranosyl)-4-(pyridin-2-yl)-1,2,3-triazole] | 0 | 
2 | O=C(OC[C@H]1O[C@H](n2cc(-c3ccccn3)nn2)[C@H](OC(=O)c2ccccc2)[C@@H](OC(=O)c2ccccc2)[C@@H]1OC(=O)c1ccccc1)c1ccccc1 [Complex 4a, 1-(2’,3’,4’,6’-Tetra-O-benzoyl-α-D-glucopyranosyl)-4-(pyridin-2-yl)-1,2,3-triazole] | 29.51 | 0
3 | O=C(OC[C@H]1O[C@H](n2cc(-c3ccc4ccccc4n3)nn2)[C@H](OC(=O)c2ccccc2)[C@@H](OC(=O)c2ccccc2)[C@@H]1OC(=O)c1ccccc1)c1ccccc1 [Complex 4b, 1-(2’,3’,4’,6’-Tetra-O-benzoyl-α-D-glucopyranosyl)-4-(quinolin-2-yl)-1,2,3-triazole] | 0 | 0
4 | CCCCC(=O)OC[C@H]1O[C@H](n2cc(-c3ccccn3)nn2)[C@H](OC(=O)CCCC)[C@@H](OC(=O)CCCC)[C@@H]1OC(=O)CCCC [Complex 5a, 1-(2’,3’,4’,6’-Tetra-O-pentanoyl-α-D-glucopyranosyl)-4-(pyridin-2-yl)-1,2,3-triazole] | 33.92 | 15.89
